Results on 7 compounds are retold here after ChEMBL document CHEMBL1201862, “PubChem BioAssay data set” (2004).

Active and inactive are the calls of the source.

One data set concerns the target T1, CAAX prenyl protease 2 (Saccharomyces cerevisiae S288c, UniProt Q03530).
T1 sequence (Q03530 whole entry): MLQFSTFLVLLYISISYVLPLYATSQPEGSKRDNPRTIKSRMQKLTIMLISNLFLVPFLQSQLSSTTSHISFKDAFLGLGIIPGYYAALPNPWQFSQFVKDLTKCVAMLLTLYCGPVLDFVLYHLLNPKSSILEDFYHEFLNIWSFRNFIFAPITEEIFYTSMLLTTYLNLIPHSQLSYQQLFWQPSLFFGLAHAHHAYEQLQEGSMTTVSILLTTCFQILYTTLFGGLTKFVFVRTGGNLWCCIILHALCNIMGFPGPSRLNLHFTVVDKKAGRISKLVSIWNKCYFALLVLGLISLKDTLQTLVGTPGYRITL
The data set is classed as biochemical.

Data set [1] has as its target Mitogen-activated protein kinase 10 (Homo sapiens, UniProt P53779). In words: Dose response biochemical screening assay for inhibitors of c-Jun N-Terminal Kinase 3 (JNK3). [Related pubchem assays: 746 ].
The target of another data set is CAAX prenyl protease 1 (Saccharomyces cerevisiae S288c, UniProt P47154). The data set is described as follows: Ste24 protease inhibitors, dose response, biochemical, S. cerevisiae, plate reader, cherry-pick (AID 488815).
Sequence of CAAX prenyl protease 1 (P47154 whole entry): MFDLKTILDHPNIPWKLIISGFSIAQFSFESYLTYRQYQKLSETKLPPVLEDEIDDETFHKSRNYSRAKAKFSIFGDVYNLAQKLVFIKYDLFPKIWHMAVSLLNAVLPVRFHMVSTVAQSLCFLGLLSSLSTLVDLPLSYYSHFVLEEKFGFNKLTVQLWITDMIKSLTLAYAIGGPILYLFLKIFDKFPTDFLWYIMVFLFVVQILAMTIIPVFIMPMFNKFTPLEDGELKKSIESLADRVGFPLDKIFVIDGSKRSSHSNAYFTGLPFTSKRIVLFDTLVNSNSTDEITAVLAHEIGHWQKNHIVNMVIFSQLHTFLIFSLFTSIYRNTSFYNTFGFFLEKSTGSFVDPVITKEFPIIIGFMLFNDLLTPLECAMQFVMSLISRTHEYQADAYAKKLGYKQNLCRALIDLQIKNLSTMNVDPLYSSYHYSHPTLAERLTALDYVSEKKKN
The target in data set [2] is UDP-galactopyranose mutase (Mycobacterium tuberculosis, UniProt P9WIQ1). The data set is described as follows: Inhibitors of Mycobacterium tuberculosis UDP-galactopyranose mutase (UGM) enzyme Measured in Biochemical System Using Plate Reader - 2105-02_Inhibitor_Dose_CherryPick_Activity. [Related pubchem assays (depositor defined):AID504439].
Sequence of UDP-galactopyranose mutase (P9WIQ1 whole entry): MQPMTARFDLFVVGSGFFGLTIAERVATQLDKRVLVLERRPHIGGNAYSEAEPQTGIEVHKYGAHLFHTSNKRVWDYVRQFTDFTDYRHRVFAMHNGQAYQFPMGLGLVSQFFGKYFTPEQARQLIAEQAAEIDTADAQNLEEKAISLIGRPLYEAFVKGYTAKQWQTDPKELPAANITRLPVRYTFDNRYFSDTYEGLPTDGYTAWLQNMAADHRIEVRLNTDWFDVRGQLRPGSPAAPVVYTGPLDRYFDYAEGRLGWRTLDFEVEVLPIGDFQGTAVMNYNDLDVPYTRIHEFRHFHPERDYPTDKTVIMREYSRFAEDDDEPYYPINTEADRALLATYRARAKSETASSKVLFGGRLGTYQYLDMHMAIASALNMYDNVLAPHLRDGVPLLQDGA
The nature of data set [3]: cytotoxicity in MIN6 insulinoma cells, dose response, cytotoxicity control, cell-based, mouse insulinoma (AID 2122).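 Note: confirmatory high-throughput counterscreen run to flag cytotoxic compounds; mouse MIN-6 beta cells carrying an insulin promoter eGFP reporter.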 Type of data set: functional.
Data set [4] is described as follows: Luminescence Cell-Based Dose Response HTS to Identify Inhibitors of 5'UTR Stem-Loop Driven Prion Protein mRNA Translation in H4 Neuroglioblastoma Cells. [Related pubchem assays: 1827 (Project Summary), 1813 (Primary HTS)]. Type of data set: functional.
The nature of data set [5]: inhibitors of SNCA 5'UTR-driven reporter translation, confirmation, H4 neuroglioma cells, luminescence (AID 1988). The data set is classed as functional, cell-based.
Data set [6] is described as follows: inhibitors of firefly luciferase expression or activity, dose response, H4 neuroglioma cells, luminescence (AID 1990). The data set is classed as functional, cell-based.
A short description of data set [7]: insulin promoter down-regulators in MIN6 cells, imaging, high-content screening, mouse beta cells (AID 1628). The data set is classed as functional.
The nature of data set [8]: growth suppression of beta-catenin-knockout colon cells, dose response, cell-based, HCT116, human colon tumor (AID 1045).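 Note: HCT116 colon tumor cells with beta catenin knocked out; cells exposed to compound for 60 hours.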 The data set is classed as functional.
Data set [9] in a line: growth suppression of PTEN-null colon cells, dose response, cell-based, HCT116 PTEN knockout (AID 1047).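 Note: HCT116 colon tumor cells with PTEN knocked out; cells exposed to compound for 60 hours before readout; potency for loss of cell viability measured by luminescence.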 The data set is classed as functional.
The target in the next data set is Cytochrome P450 2C19 (Homo sapiens, UniProt P33261). The data set is described as follows: Cytochrome panel assay with activity outcomes. Panel member name: p450-cyp2c19 Compounds with AC50 equal or less than 10 uM are considered active. The data set is classed as functional.
Sequence of Cytochrome P450 2C19 (P33261 whole entry): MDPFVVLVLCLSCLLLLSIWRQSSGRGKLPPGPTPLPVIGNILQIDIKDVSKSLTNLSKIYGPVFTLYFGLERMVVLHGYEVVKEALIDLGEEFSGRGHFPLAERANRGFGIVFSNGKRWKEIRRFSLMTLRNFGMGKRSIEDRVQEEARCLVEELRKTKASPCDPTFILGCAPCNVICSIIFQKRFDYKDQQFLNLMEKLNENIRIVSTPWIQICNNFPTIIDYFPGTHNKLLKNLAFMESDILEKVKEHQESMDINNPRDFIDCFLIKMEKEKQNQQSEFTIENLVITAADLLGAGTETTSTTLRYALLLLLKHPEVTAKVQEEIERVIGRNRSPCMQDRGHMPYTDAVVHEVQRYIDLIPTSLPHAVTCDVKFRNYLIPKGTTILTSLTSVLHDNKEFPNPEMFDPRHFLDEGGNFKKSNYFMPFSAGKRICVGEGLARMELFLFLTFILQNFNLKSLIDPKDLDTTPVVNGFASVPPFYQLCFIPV
A further data set deals with Cytochrome P450 2D6 (Homo sapiens, UniProt P10635).
Sequence of Cytochrome P450 2D6 (P10635 whole entry): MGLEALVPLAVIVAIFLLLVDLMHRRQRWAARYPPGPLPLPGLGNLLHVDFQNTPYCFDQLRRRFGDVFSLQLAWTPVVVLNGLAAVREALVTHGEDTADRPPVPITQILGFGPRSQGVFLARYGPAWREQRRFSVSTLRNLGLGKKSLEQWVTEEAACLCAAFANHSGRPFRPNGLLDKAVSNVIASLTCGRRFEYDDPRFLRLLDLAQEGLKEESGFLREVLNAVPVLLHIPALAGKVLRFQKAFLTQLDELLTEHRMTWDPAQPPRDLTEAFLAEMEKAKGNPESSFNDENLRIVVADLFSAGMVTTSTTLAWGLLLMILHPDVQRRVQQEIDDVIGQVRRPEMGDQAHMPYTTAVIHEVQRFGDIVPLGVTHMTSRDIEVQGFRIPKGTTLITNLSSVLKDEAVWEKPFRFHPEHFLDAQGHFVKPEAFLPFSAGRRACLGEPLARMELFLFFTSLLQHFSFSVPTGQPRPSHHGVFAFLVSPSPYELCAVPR
The target in data set [10] is Dual specificity protein phosphatase 3 (Homo sapiens, UniProt P51452). The data set is described as follows: SAR VHR1 Fluorescent Assay for In Vitro dose response studies Set 3. [Related pubchem assays (depositor defined):AID1654, AID1661, AID1878]. Type of data set: functional.
Sequence of Dual specificity protein phosphatase 3 (P51452 whole entry): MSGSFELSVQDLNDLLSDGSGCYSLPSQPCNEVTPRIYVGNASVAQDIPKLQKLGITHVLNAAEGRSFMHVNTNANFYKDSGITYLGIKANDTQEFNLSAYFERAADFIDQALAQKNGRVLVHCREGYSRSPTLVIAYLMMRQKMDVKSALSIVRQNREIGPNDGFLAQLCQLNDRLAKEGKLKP
In another data set the test system is INS1. The data set is described as follows: protection of INS-1E cells from cytokine death, dose response, ATP luminescence, dry powder (AID 488844). The data set is classed as functional, cell-based. The settings on record: Rattus norvegicus.
In data set [11] the target is DNA dC->dU-editing enzyme APOBEC-3A (Homo sapiens, UniProt P31941). The data set is described as follows: APOBEC3A DNA deaminase inhibitors, dose response, biochemical (AID 504722). The data set is classed as functional.
Sequence of DNA dC->dU-editing enzyme APOBEC-3A (P31941 whole entry): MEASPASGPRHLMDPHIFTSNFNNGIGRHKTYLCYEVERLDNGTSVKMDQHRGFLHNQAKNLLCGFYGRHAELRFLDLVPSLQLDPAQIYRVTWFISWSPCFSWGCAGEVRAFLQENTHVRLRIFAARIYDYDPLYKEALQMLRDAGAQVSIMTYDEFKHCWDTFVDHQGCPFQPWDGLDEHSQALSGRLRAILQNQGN
A further data set deals with Beta Lactamase (Pseudomonas aeruginosa, UniProt Q932Y6). In words: beta-lactamase reporter inhibitor potency, dose response, artefact control for NOD2-RIPK2 interaction inhibitor project, BLA reporter cells, FRET fluorescence (AID 651552). Type of data set: functional, cell-based.
Sequence of Beta Lactamase (Q932Y6 whole entry): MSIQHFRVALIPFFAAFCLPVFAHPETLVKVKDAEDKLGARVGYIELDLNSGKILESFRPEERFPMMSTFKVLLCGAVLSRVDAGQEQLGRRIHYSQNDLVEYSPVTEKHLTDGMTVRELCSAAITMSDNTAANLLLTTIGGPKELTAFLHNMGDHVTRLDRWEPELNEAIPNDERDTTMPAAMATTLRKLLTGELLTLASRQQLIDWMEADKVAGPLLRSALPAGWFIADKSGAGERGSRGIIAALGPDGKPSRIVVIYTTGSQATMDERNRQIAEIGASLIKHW
The next data set deals with Hexokinase (Trypanosoma brucei, UniProt Q38C41). In words: Confirmation assay for inhibitors of Trypanosoma brucei hexokinase 1-Analogue-first series. [Related pubchem assays (depositor defined):AID1430, AID1632, AID2516, AID2560, AID2579, AID2600, AID449725, AID492951]. The data set is classed as functional.
Sequence of Hexokinase (Q38C41 whole entry): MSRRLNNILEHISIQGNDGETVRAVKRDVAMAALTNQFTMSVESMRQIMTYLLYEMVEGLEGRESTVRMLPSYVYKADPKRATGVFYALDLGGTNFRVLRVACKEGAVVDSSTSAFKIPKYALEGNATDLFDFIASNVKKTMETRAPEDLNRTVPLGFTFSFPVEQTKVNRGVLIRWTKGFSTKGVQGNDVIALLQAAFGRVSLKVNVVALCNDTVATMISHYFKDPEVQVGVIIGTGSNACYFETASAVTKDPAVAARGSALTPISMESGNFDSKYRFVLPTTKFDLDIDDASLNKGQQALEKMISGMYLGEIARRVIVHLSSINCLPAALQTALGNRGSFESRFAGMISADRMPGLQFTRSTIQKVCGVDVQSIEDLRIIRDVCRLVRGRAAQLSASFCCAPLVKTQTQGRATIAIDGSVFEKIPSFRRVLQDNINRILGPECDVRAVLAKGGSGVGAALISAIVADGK
A short description of another data set: cells. Type of data set: functional.
The nature of data set [12]: inhibitors of intracellular T. cruzi replication, confirmation, NIH3T3 host cells, beta-gal luminescence (AID 2044).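 Note: intracellular parasites grown in NIH/3T3 mouse fibroblasts as host cells; luminescent beta-galactosidase reporter signal from transgenic T. cruzi replicating inside host cells; inhibitors lower the luminescence signal.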 The data set is classed as functional, cell-based.
Data set [13] has as its target T2, Mitochondrial peptide methionine sulfoxide reductase (Bos taurus, UniProt P54149).
T2 sequence (P54149 whole entry): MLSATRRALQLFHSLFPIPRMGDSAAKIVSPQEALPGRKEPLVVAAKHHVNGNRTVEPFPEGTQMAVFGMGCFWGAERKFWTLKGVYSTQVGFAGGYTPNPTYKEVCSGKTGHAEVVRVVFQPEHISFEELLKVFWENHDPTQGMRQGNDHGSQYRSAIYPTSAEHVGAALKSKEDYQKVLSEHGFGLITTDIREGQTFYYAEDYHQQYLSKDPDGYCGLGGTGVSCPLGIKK
In words: Absorbance-based biochemical high throughput dose response assay for activators of Methionine sulfoxide reductase A (MsrA). The data set is classed as functional.

Data set [14] concerns the target T3, Mannose-6-phosphate isomerase (Homo sapiens, UniProt P34949).
T3 sequence (P34949 whole entry): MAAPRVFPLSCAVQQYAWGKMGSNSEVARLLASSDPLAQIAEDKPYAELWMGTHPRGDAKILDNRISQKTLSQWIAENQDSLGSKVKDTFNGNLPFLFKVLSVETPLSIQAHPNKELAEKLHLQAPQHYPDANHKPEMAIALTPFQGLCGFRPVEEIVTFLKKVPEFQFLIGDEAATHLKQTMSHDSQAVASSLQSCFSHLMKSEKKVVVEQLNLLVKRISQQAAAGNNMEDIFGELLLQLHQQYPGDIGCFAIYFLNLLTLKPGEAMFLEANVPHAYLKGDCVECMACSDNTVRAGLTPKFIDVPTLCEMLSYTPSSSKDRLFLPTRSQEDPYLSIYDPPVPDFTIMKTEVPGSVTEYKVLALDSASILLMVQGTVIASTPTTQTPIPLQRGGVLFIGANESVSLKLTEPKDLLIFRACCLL
In words: Confirmation of compounds inhibiting phosphomannose isomerase (PMI) via a fluorescence intensity assay using a high concentration of mannose 6-phosphate. [Related pubchem assays (depositor defined):AID1209, AID1220, AID1545, AID1553, AID1620].

For data set [15], the target named is Glucose-6-phosphate 1-dehydrogenase (Homo sapiens, UniProt P11413). In words: human G6PD enzyme inhibitors, dose response, selectivity assay for P. falciparum G6PD inhibitor project, biochemical, fluorescence (AID 504792). Type of data set: functional.
Sequence of Glucose-6-phosphate 1-dehydrogenase (P11413 whole entry): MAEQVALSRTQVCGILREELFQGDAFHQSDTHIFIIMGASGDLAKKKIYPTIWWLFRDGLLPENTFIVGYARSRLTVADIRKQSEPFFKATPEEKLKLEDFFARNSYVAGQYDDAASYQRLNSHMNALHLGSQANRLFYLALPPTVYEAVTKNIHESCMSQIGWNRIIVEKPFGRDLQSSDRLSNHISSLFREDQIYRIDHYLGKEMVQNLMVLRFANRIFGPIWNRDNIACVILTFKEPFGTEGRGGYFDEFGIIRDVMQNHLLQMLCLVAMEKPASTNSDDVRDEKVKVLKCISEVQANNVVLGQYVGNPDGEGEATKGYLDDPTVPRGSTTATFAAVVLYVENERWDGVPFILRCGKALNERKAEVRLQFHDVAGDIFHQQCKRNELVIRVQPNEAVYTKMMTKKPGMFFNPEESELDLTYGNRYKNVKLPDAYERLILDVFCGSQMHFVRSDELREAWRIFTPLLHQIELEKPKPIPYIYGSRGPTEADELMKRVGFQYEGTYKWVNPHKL
The target in data set [16] is T4, Polyadenylate-binding protein 1 (Homo sapiens, UniProt P11940). In words: PABP1 MLLE–PAM2 binding inhibitor potency, dose response, biochemical, fluorescence polarization, FITC-PAM2 peptide (AID 602259). The data set is classed as functional. The settings on record: read-out: IC50_Mean.
T4 sequence (P11940 whole entry): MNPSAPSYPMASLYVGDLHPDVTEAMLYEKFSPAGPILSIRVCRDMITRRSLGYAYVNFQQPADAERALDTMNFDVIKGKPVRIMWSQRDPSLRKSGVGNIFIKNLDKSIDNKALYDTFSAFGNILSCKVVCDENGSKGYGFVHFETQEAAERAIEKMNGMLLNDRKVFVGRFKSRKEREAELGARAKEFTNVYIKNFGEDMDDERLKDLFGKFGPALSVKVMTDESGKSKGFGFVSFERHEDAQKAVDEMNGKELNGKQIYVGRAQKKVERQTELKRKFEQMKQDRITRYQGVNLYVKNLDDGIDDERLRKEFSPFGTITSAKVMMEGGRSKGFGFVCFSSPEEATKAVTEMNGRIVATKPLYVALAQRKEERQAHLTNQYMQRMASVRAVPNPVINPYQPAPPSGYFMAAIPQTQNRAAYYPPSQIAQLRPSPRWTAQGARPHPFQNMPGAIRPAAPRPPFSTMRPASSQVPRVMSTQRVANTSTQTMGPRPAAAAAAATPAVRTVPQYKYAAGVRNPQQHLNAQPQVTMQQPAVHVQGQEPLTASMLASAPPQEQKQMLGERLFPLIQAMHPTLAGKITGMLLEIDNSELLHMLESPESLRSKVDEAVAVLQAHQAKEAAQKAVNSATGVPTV
In data set [17] the target is Eukaryotic translation initiation factor 4E (Mus musculus, UniProt P63073). The data set is described as follows: eIF4E–eIF4G protein interaction inhibitors, dose response, biochemical, TR-FRET (AID 855).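 Note: potency for disrupting eIF4E binding to eIF4GI seen as loss of FRET.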 The data set is classed as functional.
Sequence of Eukaryotic translation initiation factor 4E (P63073 whole entry): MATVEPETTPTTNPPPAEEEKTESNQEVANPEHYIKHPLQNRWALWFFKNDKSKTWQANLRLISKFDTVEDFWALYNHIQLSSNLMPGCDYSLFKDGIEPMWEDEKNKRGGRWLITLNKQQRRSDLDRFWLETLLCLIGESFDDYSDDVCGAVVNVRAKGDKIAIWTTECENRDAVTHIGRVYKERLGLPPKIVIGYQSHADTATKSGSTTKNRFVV
In data set [18] the target is DNA dC->dU-editing enzyme APOBEC-3G (Homo sapiens, UniProt Q9HC16). In words: Dose Response confirmation of small molecule APOBEC3G DNA Deaminase Inhibitors via a fluorescence-based single-stranded DNA deaminase assay. [Related pubchem assays (depositor defined):AID493012, AID493028]. Type of data set: functional.
Data set [19] in a line: Vero E6 cell cytotoxicity, dose response, cytotoxicity control for non-replicating M. tuberculosis project, secondary assay (AID 492998). The data set is classed as functional, VeroE6. The settings on record: Vero C1008.
The test system of data set [20] is Streptococcus sp. 'group A'. The data set is described as follows: growth inhibition of control SK(-) GAS strain, dose response, counter-screen for streptokinase expression inhibitor project, luminescence, kanamycin, BacTiterGlo, confirmation (AID 1900). The data set is classed as functional, organism-based.
Data set [21] has as its target T3, Mannose-6-phosphate isomerase. The data set is described as follows: PMI enzyme inhibitors, confirmation, biochemical, fluorescence intensity (AID 1535).
A short description of data set [22]: THP-1 cell cytotoxicity, dose response, cytotoxicity control for non-replicating M. tuberculosis project (AID 489025). Type of data set: functional.
Data set [23] can be described thus: Fluorescence-based cell-based high throughput dose response assay for inhibitors of the interaction of nucleotide-binding oligomerization domain containing 2 (NOD2) and the receptor-interacting serine-threonine kinase 2 (RIPK2). Type of data set: functional. To be noted: Homo sapiens.
The target of data set [24] is T4, Polyadenylate-binding protein 1. In words: PABP1 MLLE–PAM2 interaction inhibitors, dose response, miRNA deadenylation inhibitor project, biochemical, fluorescence polarization, Cy5-PAM2 peptide, secondary (AID 602260). Type of data set: functional. The settings on record: read-out: IC50_Mean.
Data set [25] deals with Phosphoethanolamine/phosphocholine phosphatase (Homo sapiens, UniProt Q8TCT1). The data set is described as follows: SAR assay for compounds that inhibit PHOSPHO1. [Related pubchem assays (depositor defined):AID1545, AID1565, AID1574].
Data set [26] addresses Heat shock protein HSP 90-alpha (Homo sapiens, UniProt P07900). The data set is classed as functional, organism-based.
The subject of a further data set is Streptococcus. In words: Group A Streptococcus viability loss, dose response, counter-screen for streptokinase expression inhibitor project, luminescence, BacTiterGlo (AID 1915).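 Note: potency for reduction of bacterial viability or growth.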 The data set is classed as functional, organism-based.
For another data set, the target named is T5, Streptokinase A (Streptococcus pyogenes serotype M1, UniProt P10520).
T5 sequence (P10520 whole entry): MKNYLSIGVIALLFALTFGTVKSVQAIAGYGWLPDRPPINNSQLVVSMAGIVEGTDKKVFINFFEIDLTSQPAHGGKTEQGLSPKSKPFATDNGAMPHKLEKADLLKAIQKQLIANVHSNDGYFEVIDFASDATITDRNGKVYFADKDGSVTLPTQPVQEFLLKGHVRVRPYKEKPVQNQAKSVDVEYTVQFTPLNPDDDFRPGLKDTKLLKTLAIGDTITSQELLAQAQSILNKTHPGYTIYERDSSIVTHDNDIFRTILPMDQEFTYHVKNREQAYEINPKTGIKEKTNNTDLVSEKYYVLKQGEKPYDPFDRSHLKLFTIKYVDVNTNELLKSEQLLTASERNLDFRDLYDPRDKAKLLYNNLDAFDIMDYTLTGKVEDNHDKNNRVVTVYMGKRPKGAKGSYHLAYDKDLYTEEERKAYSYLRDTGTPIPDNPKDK
The data set is described as follows: S. pyogenes streptokinase expression inhibitors, potency, dose response, plasminogen activation absorbance, OD405 (AID 1914).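 Note: secreted streptokinase activity via plasminogen activation per viability signal from cell pellet.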 Type of data set: functional, Streptococcus pyogenes M1 GAS.

Sequence of Mitogen-activated protein kinase 10 (P53779 whole entry): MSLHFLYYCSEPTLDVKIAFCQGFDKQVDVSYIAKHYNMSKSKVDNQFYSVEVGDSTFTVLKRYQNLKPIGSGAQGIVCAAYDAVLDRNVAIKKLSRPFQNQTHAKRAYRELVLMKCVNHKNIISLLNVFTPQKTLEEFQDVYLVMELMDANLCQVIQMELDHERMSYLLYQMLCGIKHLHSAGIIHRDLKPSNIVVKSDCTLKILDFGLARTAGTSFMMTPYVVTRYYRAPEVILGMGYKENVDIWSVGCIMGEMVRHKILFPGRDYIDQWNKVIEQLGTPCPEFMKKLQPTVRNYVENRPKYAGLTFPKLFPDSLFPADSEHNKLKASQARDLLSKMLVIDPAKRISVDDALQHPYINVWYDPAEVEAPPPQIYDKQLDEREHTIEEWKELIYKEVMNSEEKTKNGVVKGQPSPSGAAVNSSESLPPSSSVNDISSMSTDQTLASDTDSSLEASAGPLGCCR

On to `COC(=O)c1ccccc1NC(=O)NCc1cccnc1`, for which the AC50 at CAAX prenyl protease 2 is 26.1 µM (active); at CAAX prenyl protease 1, 3.47 µM (active). Moreover, the IC50 in [1] is > 93.1 µM (not active).
Take `O=C1NC(c2cccs2)Nc2sc3c(c21)CCCC3` (stereo not drawn): the AC50 in [2] is 129 µM (active).
Take `COc1ccc(N2CCN(Cc3nc(N)nc(Nc4ccc(C)c(Cl)c4)n3)CC2)cc1`: the IC50 is 4.31 µM (active) in data set [3] and 3.03 µM (active) in data set [7]. Also, the EC50 was 26.8 µM (active) in data set [4]; 13.7 µM (active) in [5]; 9.58 µM (active) in data set [6]; 24 µM (active) in data set [8]; 28.9 µM (active) in [9].
Take `Cc1ccc(Cl)cc1-n1c(=O)cc(N2CC(C)OC(C)C2)[nH]c1=O` (stereo not drawn): the AC50 result on Cytochrome P450 2C19 and on Cytochrome P450 2D6 was “inconclusive” each time.
As to `COc1ccc(-c2nnc(Nc3nc4c(F)cccc4s3)o2)c(OC)c1`, the IC50 in data set [10] is 13.7 µM (active).
For `C[C@@H]1CN([C@@H](C)CO)C(=O)c2cccc(NC(=O)Nc3ccccc3)c2O[C@H]1CN(C)S(=O)(=O)c1ccc(F)cc1`, the AC50 with INS1 is 61.3 µM (active).
`O=c1c2ccccc2sn1-c1ccccc1`: the IC50 in [11] is > 100 µM (inactive); on Beta Lactamase it was 16.6 µM (inactive); on Hexokinase, 1.11 µM (active); in “cells”, 15.7 µM (active); in data set [14], 21 µM (active); in data set [15] it was 8.87 µM (active). In addition, the IC50 in [16] was > 66 µM (inactive); in data set [17], 20.1 µM (active); in [18], 6.4 µM (active); in [21], 6.65 µM (active); in data set [23], 4 µM (active); in [24], > 66 µM (inactive). Moreover, the IC50 in data set [25] was 0.941 µM (active). Further, the EC50 in data set [12] is 0.227 µM (active); in data set [13], 79.3 µM (inactive); in data set [20] it was 0.888 µM (active); in data set [8] it was 22.6 µM (active); in [9], 41.1 µM (active); in the data set on Streptococcus, 4.17 µM (active). Moreover, the EC50 on Streptokinase A is recorded as > 150 µM (not active). The CC50 was 13.4 µM (active) in data set [19] and 10.9 µM (active) in [22]. Also, in data set [26], the AC50 was 18.7 µM (active).
